From ChEMBL document CHEMBL2074456, “Estrone and 17beta-estradiol reverse breast cancer resistance protein-mediated multidrug resistance” (Jpn J Cancer Res, 2002) come the findings set out here.

In data set [1] the target is T1, Broad substrate specificity ATP-binding cassette transporter ABCG2 (Homo sapiens, UniProt Q9UNQ0).
T1 sequence (Q9UNQ0 whole entry): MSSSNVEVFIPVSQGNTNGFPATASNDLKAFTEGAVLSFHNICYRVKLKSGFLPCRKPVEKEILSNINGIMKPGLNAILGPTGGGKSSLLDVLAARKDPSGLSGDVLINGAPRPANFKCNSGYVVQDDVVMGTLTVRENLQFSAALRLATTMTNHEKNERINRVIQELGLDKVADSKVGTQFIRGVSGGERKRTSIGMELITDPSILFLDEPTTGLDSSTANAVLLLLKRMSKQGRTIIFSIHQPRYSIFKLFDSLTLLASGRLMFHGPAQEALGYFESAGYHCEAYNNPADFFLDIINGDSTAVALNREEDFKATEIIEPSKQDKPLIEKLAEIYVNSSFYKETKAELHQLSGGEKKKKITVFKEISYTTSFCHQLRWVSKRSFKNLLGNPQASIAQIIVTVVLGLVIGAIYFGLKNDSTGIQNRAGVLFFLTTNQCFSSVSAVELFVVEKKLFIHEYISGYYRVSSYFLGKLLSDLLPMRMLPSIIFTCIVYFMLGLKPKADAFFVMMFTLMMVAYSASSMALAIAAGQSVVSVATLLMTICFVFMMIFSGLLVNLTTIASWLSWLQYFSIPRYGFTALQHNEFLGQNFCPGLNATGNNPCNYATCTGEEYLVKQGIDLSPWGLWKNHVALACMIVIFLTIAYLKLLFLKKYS
The experiment in a line: TP_TRANSPORTER: inhibition of Topotecan efflux (Topotecan: 20 uM, beta-Estradiol: 100 uM) in BCRP-expressing K562 cells: flow cytometric analysis. In kind it is functional, cell-based. The settings on record: k562, 100 µM. A general note: Flow cytometry measures light scatter and fluorescence of single cells or particles in a stream.

Data set [2] addresses T1, Broad substrate specificity ATP-binding cassette transporter ABCG2. The experiment in a line: TP_TRANSPORTER: inhibition of Topotecan efflux (Topotecan: 20 uM, Estrone: 100 uM) in BCRP-expressing K562 cells: flow cytometric analysis. Type of data set: functional, cell-based. As to conditions: k562, 100 µM.

Molecules are shown by their SMILES.

Take `C[C@]12CC[C@@H]3c4ccc(O)cc4CC[C@H]3[C@@H]1CC[C@@H]2O` [ESTRADIOL]: the Activity result in data set [1] was “inhibitor [+]”.
On to `C[C@]12CC[C@@H]3c4ccc(O)cc4CC[C@H]3[C@@H]1CCC2=O` [ESTRONE], for which the Activity entry in data set [2] is “inhibitor [+]”.
